Results reported in publication PMC11385693, “Synthesis of ferrocenyl benzimidazole derivatives as novel anti-Toxoplasma gondii agents” (New Journal of Chemistry, 2024).
“And” between values parts separate entries of the source, which are not always exact repeats. Identical values can stand only once.

Key:
[1] = tested on: RhΔKu80:mNeonGreen strain of T. gondii; assay: microbe, parasite or virus in culture; format: cell-based, Toxoplasma gondii; settings: T. gondii ΔKu80:mNeon in HFFs, 4 days, highest concentration 100 μM; NA = not active at the maximum tested concentration; three biological replicates in triplicate; read-out: EC50
Procedure: Growth inhibition assays were carried out using the RhΔKu80:mNeonGreen strain of T. gondii, which expresses the mNeonGreen fluorescent protein.[56] Parasite growth inhibition was determined by measuring the fluorescence emission of parasite growth in increasing concentrations of compounds of interest.
T. gondii ΔKu80:mNeon tachyzoites were grown in human foreskin fibroblasts (HFFs) with Dulbecco's modified Eagle's medium (DMEM) supplemented with 3% heat inactivated foetal bovine serum (D3) as the culturing medium. Cells and parasites were maintained at 37 °C and 5% carbon dioxide (CO2).
EC50s were calculated as previously described.[56] Briefly, T. gondii ΔKu80:mNeon parasites were counted by haemocytometer and diluted to 25 000 parasites per mL in 40 mL of D3 media, to give an infection of 5000 parasites per well. The media from a black clear bottomed 96 well plate containing HFFs was then aspirated. 200 μL of uninfected D3 media was added to the top and bottom rows of wells (A and H) to serve as blanks. 200 μL of T. gondii containing D3 media was then added to the remaining wells. The parasites were allowed 2 hours to invade host cells, after which test compounds were added.
The media from the infected 96 well plates was then aspirated and 100 μL of D3 media added to each well, excluding column 12. The first 4 wells of column 12 were filled with 300 μL of drug supplemented D3 media, while the next 4 wells were filled with 300 μL of D3 media supplemented with a different drug. The drug supplemented D3 media was then serially diluted 1 : 3 across the plate, stopping at column 2 and disposing of the media, leaving all wells with 100 μL of media. Finally, the plates were closed and incubated at 37 °C with 5% CO2 for 4 days. After 4 days the fluorescence of each well on the plates was read at 594 nm emission using a PHERAstar FS microplate reader. Graphpad Prism 9 software was used to plot dose–response and determine inhibition of parasite growth.

[2] = tested on: HEK293T cell line; settings: 25 μM, MTT 48 hours
Procedure: Human prostatic epithelial cells (PNT1A) were cultured in Rosewell Park Memorial Institute (RPMI) media supplemented with 10% heat inactivated FBS. Both cell lines were incubated at 37 °C with 5% CO2. Both cell lines were obtained from ATCC.
The cells were allowed to recover overnight before the addition of compounds.
Stock solutions of the test compounds in DMSO were prepared and serially diluted in DMSO in a 96 well plate. […] 10 μL of the test compounds in media was then pipetted into the plates containing cells in triplicate. The cells were then incubated with the test compounds for 48 hours. After incubation, 10 μL of previously prepared MTT reagent was added to each well followed by incubation of the plates for 4 hours. 100 μL of solubilising agent was then pipetted into each well, and the plates incubated overnight. After overnight incubation the plates were read using a BioTek SYNERGY HTX multimode plate reader at 595 nm. Graphpad Prism 9 software was used to plot dose–response and determine cell viability.

[3] = tested on: T. gondii; assay: Fluorescence microscopy of infected cells; format: cell-based, Toxoplasma gondii; settings: 50 μM
Procedure: To visualise the impact of the target compounds on the parasites, fluorescence microscopy was performed. Compound 17 was used as a representative for the two active compounds and was incubated with infected cells at a concentration of 50 μM for 24 and 48 hours. Fluorescence microscopy images were obtained at each of the timepoints (Fig. 5).
A 24 well plate of HFF host cells grown on cover slips was infected with 100 μL of parasites per well and incubated at 37 °C for 1 h. The media in the wells was aspirated and replaced with media containing 50 μM of 17 The plate was once again incubated for 24 or 48 h at 37 °C. Once incubation was complete, the cells were washed once with PBS, before fixation with 500 μL of 4% paraformaldehyde (PFA) at room temperature for 20 minutes. Cells were washed and 500 μL of blocking buffer (2% bovine serum albumin (BSA) in mL PBST (PBS, 0.2% Triton x-100 solution) and incubated for 20 min at room temperature. The cover slips were then carefully removed from each well, mounted using Fluoromount with DAPI (Southern Biotech), and placed facing down on a microscope slide. Images were obtained using a Leica DiM8 (Leica Microsystems) microscope and processed and deconvolved using SoftWoRx and FIJI software.

[4] = Cyclic voltammetry; format: physicochemical
Source text: Ferrocene is known to undergo reversible oxidation and reduction, cycling between its 3^+ ferrocenium and the 2^+ ferrocene (Fc) states.[49,50] This redox behaviour leads to the generation of reactive oxygen species (ROS) through Fenton like reactions, which can in turn lead to parasite death.[51–53] Cyclic voltammetry was used to determine if the synthesised ferrocenyl derivatives had the potential to have an impact on the redox status of the parasite cells. Two different scan rates (25 and 90 mV s^−1) were used to ensure the reliability of the results, compared to ferrocene alone.

[5] = Turbidimetric solubility assay
Procedure: A single phosphate buffered saline (PBS) tablet (Sigma Aldrich) was dissolved in 200 mL of distilled water (dH2O) (25 °C) to obtain a PBS solution with 0.01 M phosphate buffer, 0.14 M NaCl and 0.003 M KCl.
Stock solutions of the compounds to be tested were prepared in DMSO at a concentration of 10 mM and filtered through syringe filters. Serial dilution of the stock solutions with DMSO was then carried out in a preparatory (prep) 96-well plate giving concentrations between 0.00 and 10.0 mM (0.00, 0.25, 0.50, 1.0, 2.0, 4.0, 8.0 and 10 mM). The solutions were then further diluted into 96-well assay plates containing DMSO, PBS or HEPES buffer by pipetting 4.00 μL of solution from the prep plate to the Assay plate containing 196 μL of DMSO or buffer, giving final concentrations between 0.00 and 200 μM (0.00, 5.00, 10.0, 20.0, 40.0, 80.0, 160 and 200 μM). The assay plates were incubated at 25.0 or 37.0 °C for two hours before their UV-vis absorbance was read at 620 nm with a SPECTROstar Nano microplate reader spectrophotometer. Blank readings were used to gain corrected readings by subtracting them from obtained absorbances for each compound concentration.

SMILES: O=C(NCCn1cnc2cccnc21)[c-]1cccc1.[Fe+2].c1cc[cH-]c1 [Compound 17]
- EC50 [1]: 17.5 µM
- Cell survival / % cell viability [2]: 70%
- Parasite plasma membrane integrity (fluorescence microscopy) ([3]; 24 hours, leakage of fluorescent protein): damaged plasma membranes
- Daughter cell division of parasites that continued to grow (fluorescence microscopy) ([3]; 48 hours): abnormal daughter cell division
- E 1/2 ([4]; Run1, scan rate 25 mV s^−1): 620 mV
- ΔEp ([4]; Run1, scan rate 25 mV s^−1): 79 mV
- E 1/2 ([4]; Run2, scan rate 90 mV s^−1): 618 mV
- ΔEp ([4]; Run2, scan rate 90 mV s^−1): 68 mV
- Solubility range ([5]; HEPES (pH 7.0), 25 °C): 20-40 µM and 7-15 µg/mL
- Solubility class ([5]; HEPES (pH 7.0), 37 °C): poor (solubility <10 μg mL^−1 are considered to have poor solubility)
- Solubility range ([5]; HEPES (pH 7.0), 37 °C): 0-5 µM and 0–2 µg/mL
- Solubility range ([5]; PBS (pH7.4), 25 °C): 0-5 µM and 0-2 µg/mL
- Solubility range ([5]; PBS (pH7.4), 37 °C): 5-10 µM and 2-4 µg/mL
